Measurements reported in patent US9023789B2, “Amylin analogs and pharmaceutical compositions thereof” (Novo Nordisk A/S, priority 2012, dated 2015).
Where two headings read alike, the source gives them in different places. Numbered stars: 1 amine (or outer) side, 2 acyl side, 3 side chain; on linkers, the order of the positions; unused ones are H or OH. Bridge positions count the residues as written; N and C are the ends. Peptide text beside a SMILES is read from it. * marks the point of attachment. C20 diacid = O=C(O)CCCCCCCCCCCCCCCCCCC(=O)*; γGlu = O=C(O)[C@H](CCC(=O)[*:2])N[*:1]

Columns and labels:
[1] = ASSAY (IV) determination of solubility; format: physicochemical
Method in brief: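 Dissolve polypeptide in water ([…] stock); combine 1:1 with each 100 mM buffer (glycylglycine pH 3.0/4.0/5.0; bistrispropane pH 6.0/6.5/7.0/7.5/8.0); hold 18 hours at room temperature; centrifuge; quantify polypeptide by UPLC.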

[2] = target: T1, rat amylin receptor (rat calcitonin receptor + rat RAMP 3) (Rattus norvegicus, UniProt P32214+Q9JJ73); experiment: ASSAY (VI) binding to the rat amylin receptor; details: for Ratio rCT/rAmylin binding: rat binding selectivity, rCTR IC50 / rAmylin-R IC50
T1 construct: expressed in transfected cells; host or cells: BHK tk'ts 13 (transient, FuGENE 6), membranes
T1 sequence (P32214 25-479 isoform P32214-2 limits assumed): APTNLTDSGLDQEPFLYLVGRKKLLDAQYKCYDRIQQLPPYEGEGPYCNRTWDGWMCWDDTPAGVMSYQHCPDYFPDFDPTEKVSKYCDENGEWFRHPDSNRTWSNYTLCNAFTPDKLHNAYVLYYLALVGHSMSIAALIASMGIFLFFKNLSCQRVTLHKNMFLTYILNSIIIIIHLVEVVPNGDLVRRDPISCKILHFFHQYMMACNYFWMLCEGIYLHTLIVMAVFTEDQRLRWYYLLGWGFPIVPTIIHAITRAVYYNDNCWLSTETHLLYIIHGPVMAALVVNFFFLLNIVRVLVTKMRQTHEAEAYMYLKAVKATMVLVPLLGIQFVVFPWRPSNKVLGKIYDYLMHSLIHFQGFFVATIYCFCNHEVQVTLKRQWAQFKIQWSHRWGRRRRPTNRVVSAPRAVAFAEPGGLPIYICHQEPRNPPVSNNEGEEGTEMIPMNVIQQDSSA
T1 sequence (Q9JJ73 23-147 partner): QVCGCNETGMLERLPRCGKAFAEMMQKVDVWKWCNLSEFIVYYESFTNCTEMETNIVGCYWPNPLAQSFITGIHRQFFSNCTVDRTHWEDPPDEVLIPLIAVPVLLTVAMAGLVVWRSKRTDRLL
Method in brief: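 Binding to the rat amylin receptor was determined with membrane preparations. The receptor was expressed by transiently transfecting BHK tk′ts 13 cells with rat calcitonin receptor, using FuGENE® 6 (Roche) according to the manufacturer's recommendations. Roughly 48 hours later the cells were harvested and their membranes isolated.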

rat calcitonin receptor = target: T2, rat calcitonin receptor (Rattus norvegicus, UniProt P32214); experiment: ASSAY (VIII) binding to the rat calcitonin receptor; details: Table 7, read-out: rCTR bind IC50
T2 construct: expressed in transfected cells; host or cells: BHK tk'ts 13 (transient, FuGENE 6), membranes
T2 sequence (P32214 25-479 isoform P32214-2 limits assumed): T1 sequence (P32214 25-479 isoform P32214-2 limits assumed)
Method in brief: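 Rat calcitonin receptor is expressed transiently in BHK tk′ts 13 cells cultured in DMEM with 10% FBS. Roughly two days (approximately 48 hours) post-transfection, cells are harvested for membrane preparation.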

[3] = target: T3, human amylin receptor (membranes from Amylin 3(a)/CRE-luc cells) (Homo sapiens, UniProt O60896+P30988); experiment: ASSAY (V) binding to the human amylin receptor (SPA, 125I-rat amylin);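 also: competition binding of cell membranes (35 ng/µL) mixed with SPA beads in 384-well plates at 40 µL total volume, read by scintillation counting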
T3 construct: expressed in transfected cells
T3 sequence (P30988 25-474): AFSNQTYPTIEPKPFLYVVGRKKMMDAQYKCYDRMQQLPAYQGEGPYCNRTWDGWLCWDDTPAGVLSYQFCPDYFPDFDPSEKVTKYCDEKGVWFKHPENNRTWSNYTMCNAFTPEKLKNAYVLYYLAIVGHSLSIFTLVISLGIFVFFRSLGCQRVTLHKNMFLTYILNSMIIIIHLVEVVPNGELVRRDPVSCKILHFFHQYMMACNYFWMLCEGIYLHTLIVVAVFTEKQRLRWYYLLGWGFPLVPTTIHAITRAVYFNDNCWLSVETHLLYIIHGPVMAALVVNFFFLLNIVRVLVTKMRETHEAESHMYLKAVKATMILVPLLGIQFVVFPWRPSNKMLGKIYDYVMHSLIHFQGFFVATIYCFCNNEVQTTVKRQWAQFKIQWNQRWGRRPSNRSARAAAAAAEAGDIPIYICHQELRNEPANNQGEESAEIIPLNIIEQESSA
T3 sequence (O60896 24-148 partner): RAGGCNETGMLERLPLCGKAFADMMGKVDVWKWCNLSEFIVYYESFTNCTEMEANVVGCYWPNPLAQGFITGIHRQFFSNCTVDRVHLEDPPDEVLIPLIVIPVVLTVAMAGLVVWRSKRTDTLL

[4] = target: T4, human calcitonin receptor (Homo sapiens, UniProt P30988); experiment: ASSAY (VII) binding to the human calcitonin receptor (SPA, 125I-Calcitonin); details: read-out: hCTR bind IC50;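 also: cell membranes (35 ng/µL) combined with SPA beads in 40 µL of pH 7.4 Hepes buffer, 384-well format, signal counted on a TopCounter instrument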
T4 construct: expressed in transfected cells
T4 sequence (P30988 25-474): T3 sequence (P30988 25-474)

[5] = target: T5, human calcitonin (a) receptor in BHK570 cells (Homo sapiens, UniProt P30988); experiment: ASSAY (II)a functional assay, human calcitonin receptor (CRE luciferase); format: cell-based; details: read-out: hCTR funct. EC50
T5 construct: expressed in transfected cells
T5 sequence (P30988 25-474): T3 sequence (P30988 25-474)
Method in brief: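 BHK cells stably carrying a CRE-luciferase reporter plus calcitonin receptor, or calcitonin receptor with RAMP-3 for the amylin 3(a) receptor, were seeded and kept overnight at 37° C. Compounds were added in assay medium with 10% FBS and 10 mM Hepes, pH 7.4, for 3 hours at 37° C, then luminescence was counted.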

- solubility at 18 h ([1]; bistrispropane buffer, pH 6.5, read-out: Solubility pH 6.5 Concentration): ≥ 200 µM
- solubility at 18 h ([1]; bistrispropane buffer, pH 7.5, read-out: Solubility pH 7.5 Concentration): ≥ 200 µM
- solubility at 18 h ([1]; bistrispropane buffer, pH 6.0, read-out: Solubility pH 6.0 Concentration): ≥ 200 µM
- solubility at 18 h ([1]; bistrispropane buffer, pH 7.0, read-out: Solubility pH 7.0 Concentration): ≥ 200 µM
- solubility at 18 h ([1]; bistrispropane buffer, pH 8.0, read-out: Solubility pH 8.0 Concentration): ≥ 200 µM
- solubility at 18 h ([1]; glycylglycine buffer, pH 3.0, read-out: Solubility pH 3.0 Concentration): ≥ 200 µM
- solubility at 18 h ([1]; glycylglycine buffer, pH 4.0, read-out: Solubility pH 4.0 Concentration): ≥ 200 µM
- solubility at 18 h ([1]; glycylglycine buffer, pH 5.0, read-out: Solubility pH 5.0 Concentration): ≥ 200 µM
- IC50 ([2]; Table 7, binding to rat amylin receptor, read-out: rAmylin-R bind IC50): 2.29 nM
- Ratio rCT/rAmylin binding ([2]; Table 7): 12.6
- Ratio rCT/rAmylin binding ([2]; Table 7a (preferred compounds)): 12.6
- IC50 (rat calcitonin receptor): 28.9 nM
- IC50 ([3]; Table 4, read-out: hAmylin-R bind IC50): 0.915 nM
- Ratio hCT/hAmylin binding ([3]; Table 5, selectivity, hCTR bind IC50 / hAmylin-R bind IC50): 3.9
- Ratio hCT/hAmylin binding ([3]; Table 7, human binding selectivity, included for comparison): 3.9
- Ratio hCT/hAmylin binding ([3]; Table 7a (preferred compounds), human binding selectivity, included for comparison): 3.9
- IC50 [4]: 3.61 nM
- EC50 [5]: 0.528 nM
Compound: CC[C@H](C)[C@H](NC(=O)[C@H](C)NC(=O)CNC(=O)[C@H](Cc1ccccc1)NC(=O)[C@H](CC(N)=O)NC(=O)[C@@H]1CCCN1C(=O)[C@H](CO)NC(=O)[C@H](CO)NC(=O)[C@H](Cc1c[nH]cn1)NC(=O)[C@H](CCCNC(=N)N)NC(=O)[C@H](CC(C)C)NC(=O)[C@H](Cc1ccccc1)NC(=O)[C@H](CCC(=O)O)NC(=O)[C@H](C)NC(=O)[C@H](CC(C)C)NC(=O)[C@H](CCCNC(=N)N)NC(=O)[C@H](CCC(N)=O)NC(=O)[C@@H](NC(=O)[C@H](C)NC(=O)[C@@H]1CSSC[C@H](NC(=O)[C@H](CCCCN)NC(=O)CC[C@H](NC(=O)CCCCCCCCCCCCCCCCCCC(=O)O)C(=O)O)C(=O)N[C@@H](CC(N)=O)C(=O)N[C@@H]([C@@H](C)O)C(=O)N[C@@H](C)C(=O)N[C@@H]([C@@H](C)O)C(=O)N1)[C@@H](C)O)C(=O)N[C@@H](CC(C)C)C(=O)N1CCC[C@H]1C(=O)N[C@@H](CO)C(=O)N[C@H](C(=O)N[C@@H](CC(N)=O)C(=O)N[C@H](C(=O)NCC(=O)N[C@@H](CO)C(=O)N[C@@H](CCC(=O)O)C(=O)N[C@H](C(=O)N[C@@H](Cc1ccc(O)cc1)C(N)=O)[C@@H](C)O)C(C)C)[C@@H](C)O [Example 33] ({C20 diacid-γGlu}-KCNTATCATQRLAEFLRHSSPNFGAILPSTNVGSETY-NH2; disulfide 2-7)
